Test results: patent US11773078B2, “Furin inhibitors” (Glaxosmithkline Intellectual Property Development Limited, priority 2018, dated 2023)

Experiments:
[1] = target: T1, Furin (108-574-Tev-Flag-His) enzyme (Homo sapiens, UniProt P09958); assay: Furin enzyme assay; type: biochemical; settings: for IC50: read-out: furin enzyme pIC50 (converted)
T1 construct: Furin (108-574-Tev-Flag-His) enzyme was expressed and purified from CHO cells; TEV cleavage site (C); FLAG (C); His (C); made in house; host or cells: CHO cells
T1 sequence (P09958 108-574): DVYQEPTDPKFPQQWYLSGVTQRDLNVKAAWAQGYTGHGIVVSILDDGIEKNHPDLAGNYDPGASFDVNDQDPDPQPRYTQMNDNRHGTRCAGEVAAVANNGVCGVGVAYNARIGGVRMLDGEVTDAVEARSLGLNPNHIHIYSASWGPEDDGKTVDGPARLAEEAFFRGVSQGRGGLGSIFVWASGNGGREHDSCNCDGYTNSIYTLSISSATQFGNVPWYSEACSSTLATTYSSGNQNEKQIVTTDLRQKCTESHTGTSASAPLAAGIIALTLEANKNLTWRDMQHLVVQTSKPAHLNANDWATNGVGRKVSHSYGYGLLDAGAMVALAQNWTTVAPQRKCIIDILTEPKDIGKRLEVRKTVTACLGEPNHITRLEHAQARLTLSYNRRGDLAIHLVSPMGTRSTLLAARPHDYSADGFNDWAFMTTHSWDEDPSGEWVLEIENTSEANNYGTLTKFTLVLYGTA
How it was run: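 CHO-expressed, purified furin construct at 40 pM in 100 mM HEPES pH7.5, 1 mM CaCl2, 0.005% Triton X-100. Eleven-point 1:3 series, 0.00017–10 μM final, incubated 2 h at room temperature and read on Envision. pXC50 from four-parameter fit.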

[2] = target: T2, furin (endogenous protease) in U20S cells (Homo sapiens, UniProt P09958); assay: Furin cell-based assay (image-based, Golgi-targeted GFP with BMP10 furin/PCSK cleavage site); settings: 24-hour incubation, read-out: furin golgi cell pXC50 (converted);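 also: Read-out is mean GFP fluorescence of Golgi puncta per cell by high-content imaging, retained when furin inhibited, over an eleven-point 0.00017–10 µM series, four-parameter fit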
T2 construct: the endogenous protease cleaves GFP; endogenous in cells; host or cells: U2OS cells transduced with a BacMam reporter
T2 sequence (P09958 108-794): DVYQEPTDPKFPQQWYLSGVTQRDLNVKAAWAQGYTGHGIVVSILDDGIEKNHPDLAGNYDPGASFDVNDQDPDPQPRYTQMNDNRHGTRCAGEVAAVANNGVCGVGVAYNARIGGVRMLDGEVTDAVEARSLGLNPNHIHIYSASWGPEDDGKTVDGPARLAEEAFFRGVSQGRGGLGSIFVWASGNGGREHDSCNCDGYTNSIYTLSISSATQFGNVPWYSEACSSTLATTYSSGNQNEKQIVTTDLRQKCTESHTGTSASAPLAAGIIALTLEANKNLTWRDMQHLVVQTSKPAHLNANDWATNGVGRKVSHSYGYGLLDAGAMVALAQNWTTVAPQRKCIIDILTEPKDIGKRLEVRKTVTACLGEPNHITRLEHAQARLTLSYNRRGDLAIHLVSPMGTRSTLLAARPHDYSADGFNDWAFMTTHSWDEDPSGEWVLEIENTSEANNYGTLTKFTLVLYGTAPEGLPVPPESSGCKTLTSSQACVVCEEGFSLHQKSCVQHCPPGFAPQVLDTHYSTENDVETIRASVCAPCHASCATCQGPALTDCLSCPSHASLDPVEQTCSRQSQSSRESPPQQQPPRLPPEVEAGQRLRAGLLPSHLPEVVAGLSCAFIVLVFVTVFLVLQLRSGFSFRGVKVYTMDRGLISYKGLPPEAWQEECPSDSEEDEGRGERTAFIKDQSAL

Compound	furin enzyme pIC50 [1]	EC50 [2]	IC50 [1]
CNC(=O)OCC1CCN(Cc2cc(Oc3cnc(N4CCN(C5CC(C(=O)O)C5)CC4)nc3)nc(-c3cc(Cl)cc(Cl)c3)c2)CC1 (stereo not shown) [Example 211, 3-(4-(5-((6-(3,5-dichlorophenyl)-4-((4-(((methylcarbamoyl)oxy)methyl)piperidin-1-yl)methyl)pyridin-2-yl)oxy)pyrimidin-2-yl)piperazin-1-yl)cyclobutanecarboxylic acid]	10.1	25.1 nM	
CN1CCN(c2ccc(Oc3cc(CN4CCC(CC(=O)O)CC4)cc(-c4cc(Cl)cc(Cl)c4)n3)cn2)CC1 [Example 212, 2-(1-((2-(3,5-dichlorophenyl)-6-((6-(4-methylpiperazin-1-yl)pyridin-3-yl)oxy)pyridin-4-yl)methyl)piperidin-4-yl)acetic acid]	9	31.6 nM	
CC(CC1CCN(Cc2cc(Oc3ccc(N4CCN(C)CC4)nc3)nc(-c3cc(Cl)cc(Cl)c3)c2)CC1)C(=O)O (stereo not shown) [Example 213, 3-(1-((2-(3,5-dichlorophenyl)-6-((6-(4-methylpiperazin-1-yl)pyridin-3-yl)oxy)pyridin-4-yl)methyl)piperidin-4-yl)-2-methylpropanoic acid]	8.9	25.1 nM	
CC(=O)NCC1CCN(Cc2cc(Oc3cnc(N4CCN(CCC(C)S(C)(=O)=O)CC4)nc3)nc(-c3cc(Cl)cc(Cl)c3)c2)CC1 (stereo not shown) [Example 214, N-((1-((2-(3,5-dichlorophenyl)-6-((2-(4-(3-(methylsulfonyl)butyl)piperazin-1-yl)pyrimidin-5-yl)oxy)pyridin-4-yl)methyl)piperidin-4-yl)methyl)acetamide]	9.1	2.51 nM	
COC(=O)NCC1CCN(Cc2cc(Oc3ccc(N4CCN(CCCS(C)(=O)=O)CC4)nc3)nc(-c3cc(Cl)cc(Cl)c3)c2)CC1 [Example 217, methyl ((1-((2-(3,5-dichlorophenyl)-6-((6-(4-(3-(methylsulfonyl)propyl)piperazin-1-yl)pyridin-3-yl)oxy)pyridin-4-yl)methyl)piperidin-4-yl)methyl)carbamate]	9.8	5.01 nM	
CNC(=O)NCC1CCN(Cc2cc(Oc3ccc(N4CCN(CCC(C)S(C)(=O)=O)CC4)nc3)nc(-c3cc(Cl)cc(Cl)c3)c2)CC1 (stereo not shown) [Example 219, 1-((1-((2-(3,5-dichlorophenyl)-6-((6-(4-(3-(methylsulfonyl)butyl)piperazin-1-yl)pyridin-3-yl)oxy)pyridin-4-yl)methyl)piperidin-4-yl)methyl)-3-methylurea]	9.8	0.398 nM	
CNC(=O)NCC1CCN(Cc2cc(Oc3cnc(N4CCN(C5CC(C(=O)O)C5)CC4)nc3)nc(-c3cc(Cl)cc(Cl)c3)c2)CC1 (stereo not shown) [Example 221, 3-(4-(5-((6-(3,5-dichlorophenyl)-4-((4-((3-methylureido)methyl)piperidin-1-yl)methyl)pyridin-2-yl)oxy)pyrimidin-2-yl)piperazin-1-yl)cyclobutanecarboxylic acid]	10.4	5.01 nM	
COC(=O)NCC1CCN(Cc2cc(Oc3cnc(N4CCN(CCCS(C)(=O)=O)CC4)nc3)nc(-c3cc(Cl)cc(Cl)c3)c2)CC1 [Example 223, methyl ((1-((2-(3,5-dichlorophenyl)-6-((2-(4-(3-(methylsulfonyl)propyl)piperazin-1-yl)pyrimidin-5-yl)oxy)pyridin-4-yl)methyl)piperidin-4-yl)methyl)carbamate]	9.8	5.01 nM	
CN1CCN(c2ncc(Oc3cc(CN4CC[C@@H]5[C@H](CC4)[C@H]5CC(=O)O)cc(-c4cc(Cl)cc(Cl)c4)n3)cn2)CC1 [Example 224, 2-((1R,7S,8r)-4-((2-(3,5-dichlorophenyl)-6-((2-(4-methylpiperazin-1-yl)pyrimidin-5-yl)oxy)pyridin-4-yl)methyl)-4-azabicyclo[5.1.0]octan-8-yl)acetic acid]	8.7	7.94 nM	
CN1CCN(c2ncc(Oc3cc(CN4CCC(OC(C)(C)C(=O)O)CC4)cc(-c4cc(Cl)cc(Cl)c4)n3)cn2)CC1 [Example 225, 2-((1-((2-(3,5-dichlorophenyl)-6-((2-(4-methylpiperazin-1-yl)pyrimidin-5-yl)oxy)pyridin-4-yl)methyl)piperidin-4-yl)oxy)-2-methylpropanoic acid]	8.5	10 nM	
CN1CCN(c2ncc(Oc3cc(CN4CCC(CC(=O)O)CC4)cc(-c4cc(Cl)cc(Cl)c4)n3)cn2)CC(O)C1 (stereo not shown) [Example 226, 2-(1-((2-(3,5-dichlorophenyl)-6-((2-(6-hydroxy-4-methyl-1,4-diazepan-1-yl)pyrimidin-5-yl)oxy)pyridin-4-yl)methyl)piperidin-4-yl)acetic acid]		15.8 nM	2.51 nM
CN(C)C1CCN(c2ncc(Oc3cc(CN4CCC(CC(=O)O)CC4)cc(-c4cc(Cl)cc(Cl)c4)n3)cn2)CC1 [Example 227, 2-(1-((2-(3,5-dichlorophenyl)-6-((2-(4-(dimethylamino)piperidin-1-yl)pyrimidin-5-yl)oxy)pyridin-4-yl)methyl)piperidin-4-yl)acetic acid]	8.7	39.8 nM	
CN1C2CC1CN(c1ncc(Oc3cc(CN4CCC(CC(=O)O)CC4)cc(-c4cc(Cl)cc(Cl)c4)n3)cn1)C2 [Example 228, 2-(1-((2-(3,5-dichlorophenyl)-6-((2-(6-methyl-3,6-diazabicyclo[3.1.1]heptan-3-yl)pyrimidin-5-yl)oxy)pyridin-4-yl)methyl)piperidin-4-yl)acetic acid]	8.6	39.8 nM	
CCN1CCCN(c2ncc(Oc3cc(CN4CCC(CC(=O)O)CC4)cc(-c4cc(Cl)cc(Cl)c4)n3)cn2)CC1 [Example 230, 2-(1-((2-(3,5-dichlorophenyl)-6-((2-(4-ethyl-1,4-diazepan-1-yl)pyrimidin-5-yl)oxy)pyridin-4-yl)methyl)piperidin-4-yl)acetic acid]	8.6	10 nM	
CCN1C[C@@H]2C[C@H]1CN2c1ncc(Oc2cc(CN3CCC(CC(=O)O)CC3)cc(-c3cc(Cl)cc(Cl)c3)n2)cn1 [Example 232, 2-(1-((2-(3,5-dichlorophenyl)-6-((2-((1S,4S)-5-ethyl-2,5-diazabicyclo[2.2.1]heptan-2-yl)pyrimidin-5-yl)oxy)pyridin-4-yl)methyl)piperidin-4-yl)acetic acid]	8.9	50.1 nM	

More lines, now with the values ahead:

furin enzyme pIC50 [1]	EC50 [2]	IC50 [1]	Compound
	10 nM	0.398 nM	CC(=O)NCC1CCN(Cc2cc(Oc3cnc(N4CCN(C(C)CCC(=O)O)CC4)nc3)nc(-c3cc(Cl)cc(Cl)c3)c2)CC1 (stereo not shown) [Example 215, 4-(4-(5-((4-((4-(acetamidomethyl)piperidin-1-yl)methyl)-6-(3,5-dichlorophenyl)pyridin-2-yl)oxy)pyrimidin-2-yl)piperazin-1-yl)pentanoic acid]
10.2	15.8 nM		CC(=O)NCC1CCN(Cc2cc(Oc3cnc(N4CCN(C5CC(C(=O)O)C5)CC4)nc3)nc(-c3cc(Cl)cc(Cl)c3)c2)CC1 (stereo not shown) [Example 216, 3-(4-(5-((4-((4-(acetamidomethyl)piperidin-1-yl)methyl)-6-(3,5-dichlorophenyl)pyridin-2-yl)oxy)pyrimidin-2-yl)piperazin-1-yl)cyclobutanecarboxylic acid]
10.1	2 nM		CC(=O)NCC1CCN(Cc2cc(Oc3ccc(N4CCN(CCC(C)S(C)(=O)=O)CC4)nc3)nc(-c3cc(Cl)cc(Cl)c3)c2)CC1 (stereo not shown) [Example 218, N-((1-((2-(3,5-dichlorophenyl)-6-((6-(4-(3-(methylsulfonyl)butyl)piperazin-1-yl)pyridin-3-yl)oxy)pyridin-4-yl)methyl)piperidin-4-yl)methyl)acetamide]
	2.51 nM	0.0631 nM	CNC(=O)NCC1CCN(Cc2cc(Oc3cnc(N4CCN(CCC(C)S(C)(=O)=O)CC4)nc3)nc(-c3cc(Cl)cc(Cl)c3)c2)CC1 (stereo not shown) [Example 220, 1-((1-((2-(3,5-dichlorophenyl)-6-((2-(4-(3-(methylsulfonyl)butyl)piperazin-1-yl)pyrimidin-5-yl)oxy)pyridin-4-yl)methyl)piperidin-4-yl)methyl)-3-methylurea]
10.2	25.1 nM		COC(=O)NCC1CCN(Cc2cc(Oc3cnc(N4CCN(C(C)CCC(=O)O)CC4)nc3)nc(-c3cc(Cl)cc(Cl)c3)c2)CC1 (stereo not shown) [Example 222, 4-(4-(5-((6-(3,5-dichlorophenyl)-4-((4-(((methoxycarbonyl)amino)methyl)piperidin-1-yl)methyl)pyridin-2-yl)oxy)pyrimidin-2-yl)piperazin-1-yl)pentanoic acid]
8.6	20 nM		O=C(O)CC1CCN(Cc2cc(Oc3cnc(N4CCN(CC5(O)CC5)CC4)nc3)nc(-c3cc(Cl)cc(Cl)c3)c2)CC1 [Example 229, 2-(1-((2-(3,5-dichlorophenyl)-6-((2-(4-((1-hydroxycyclopropyl)methyl)piperazin-1-yl)pyrimidin-5-yl)oxy)pyridin-4-yl)methyl)piperidin-4-yl)acetic acid]
8.5	10 nM		CN1C[C@@H]2C[C@H]1CN2c1ncc(Oc2cc(CN3CCC(CC(=O)O)CC3)cc(-c3cc(Cl)cc(Cl)c3)n2)cn1 [Example 231, 2-(1-((2-(3,5-dichlorophenyl)-6-((2-((1S,4S)-5-methyl-2,5-diazabicyclo[2.2.1]heptan-2-yl)pyrimidin-5-yl)oxy)pyridin-4-yl)methyl)piperidin-4-yl)acetic acid]
8.2	100 nM		O=C(O)CC1CCN(Cc2cc(Oc3cnc(N4CCN(C5CC5)CC4)nc3)nc(-c3cc(Cl)cc(Cl)c3)c2)CC1 [Example 233, 2-(1-((2-((2-(4-cyclopropylpiperazin-1-yl)pyrimidin-5-yl)oxy)-6-(3,5-dichlorophenyl)pyridin-4-yl)methyl)piperidin-4-yl)acetic acid]
